Measured values: the kinase profiling compilation of Christmann-Franck et al. (2016)

Legend:
Assay in all cases: KINOMEscan competition binding
Conditions in all cases: compound 1.0 µM
[1] = system: ABL1 (human), P00519 [M351T]
[2] = system: ABL1 (human), P00519 [Y253F]
ABL2 (human) = ABL2 (human) (UniProt P42684)
ACVR2A (human) = ACVR2A (human) (UniProt P27037)
ADCK4 (human) = ADCK4 (human) (UniProt Q96D53)
CAMK2B (human) = CAMK2B (human) (UniProt Q13554)
CAMK4 (human) = CAMK4 (human) (UniProt Q16566)
CDK14 (human) = CDK14 (human) (UniProt O94921)
CDK7 (human) = CDK7 (human) (UniProt P50613)
CDK9 (human) = CDK9 (human) (UniProt P50750)
CLK4 (human) = CLK4 (human) (UniProt Q9HAZ1)
CSNK2A2 (human) = CSNK2A2 (human) (UniProt P19784)
DSTYK (human) = DSTYK (human) (UniProt Q6XUX3)
EIF2AK2 (human) = EIF2AK2 (human) (UniProt P19525)
EPHA6 (human) = EPHA6 (human) (UniProt Q9UF33)
FER (human) = FER (human) (UniProt P16591)
[3] = system: FLT3 (human), P36888 [ITD]
[4] = system: FLT3 (human), P36888 [R834Q]
HCK (human) = HCK (human) (UniProt P08631)
ICK (human) = ICK (human) (UniProt Q9UPZ9)
ITK (human) = ITK (human) (UniProt Q08881)
[5] = target: JAK3 JH1 catalytic (human) (UniProt P52333)
[6] = system: KIT (human), P10721 [A829P]
[7] = system: KIT (human), P10721 [V559D/V654A]
LTK (human) = LTK (human) (UniProt P29376)
MAP2K1 (human) = MAP2K1 (human) (UniProt Q02750)
MAP2K2 (human) = MAP2K2 (human) (UniProt P36507)
MAP2K5 (human) = MAP2K5 (human) (UniProt Q13163)
MAP2K6 (human) = MAP2K6 (human) (UniProt P52564)
MAPK11 (human) = MAPK11 (human) (UniProt Q15759)
MELK (human) = MELK (human) (UniProt Q14680)
PAK6 (human) = PAK6 (human) (UniProt Q9NQU5)
[8] = system: PIK3CA (human), P42336 [E542K]
PRPF4B (human) = PRPF4B (human) (UniProt Q13523)
SRPK3 (human) = SRPK3 (human) (UniProt Q9UPE1)
STK25 (human) = STK25 (human) (UniProt O00506)
STK32C (human) = STK32C (human) (UniProt Q86UX6)
STK33 (human) = STK33 (human) (UniProt Q9BYT3)
STK35 (human) = STK35 (human) (UniProt Q8TDR2)
STK36 (human) = STK36 (human) (UniProt Q9NRP7)
SYK (human) = SYK (human) (UniProt P43405)
TRPM6 (human) = TRPM6 (human) (UniProt Q9BX84)
YSK4 (human) = YSK4 (human) (UniProt Q56UN5)

Sequence of CDK7 (human) (P50613 whole entry, looked up): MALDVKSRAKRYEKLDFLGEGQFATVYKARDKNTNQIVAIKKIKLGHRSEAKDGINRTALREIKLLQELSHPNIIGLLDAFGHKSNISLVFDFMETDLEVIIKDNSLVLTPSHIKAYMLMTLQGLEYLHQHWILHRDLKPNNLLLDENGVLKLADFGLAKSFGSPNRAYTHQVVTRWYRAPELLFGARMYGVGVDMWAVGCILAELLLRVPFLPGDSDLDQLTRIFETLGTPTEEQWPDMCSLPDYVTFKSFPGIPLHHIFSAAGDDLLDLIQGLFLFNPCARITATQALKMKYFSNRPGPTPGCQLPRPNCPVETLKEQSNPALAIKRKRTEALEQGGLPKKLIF
Sequence of MAP2K5 (human) (Q13163 whole entry, looked up): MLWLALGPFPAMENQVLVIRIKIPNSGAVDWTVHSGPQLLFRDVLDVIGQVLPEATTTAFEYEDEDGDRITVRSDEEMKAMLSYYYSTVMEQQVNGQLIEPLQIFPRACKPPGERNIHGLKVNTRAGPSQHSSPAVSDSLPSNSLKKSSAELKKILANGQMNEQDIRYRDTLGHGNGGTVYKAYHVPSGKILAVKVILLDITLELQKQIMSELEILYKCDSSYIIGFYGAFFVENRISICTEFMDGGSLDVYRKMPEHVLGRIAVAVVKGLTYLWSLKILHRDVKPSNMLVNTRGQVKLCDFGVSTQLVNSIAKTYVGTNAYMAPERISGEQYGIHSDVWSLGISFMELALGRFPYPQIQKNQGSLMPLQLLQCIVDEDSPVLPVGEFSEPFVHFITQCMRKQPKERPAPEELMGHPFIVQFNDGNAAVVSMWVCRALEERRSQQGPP
Sequence of MAP2K6 (human) (P52564 whole entry, looked up): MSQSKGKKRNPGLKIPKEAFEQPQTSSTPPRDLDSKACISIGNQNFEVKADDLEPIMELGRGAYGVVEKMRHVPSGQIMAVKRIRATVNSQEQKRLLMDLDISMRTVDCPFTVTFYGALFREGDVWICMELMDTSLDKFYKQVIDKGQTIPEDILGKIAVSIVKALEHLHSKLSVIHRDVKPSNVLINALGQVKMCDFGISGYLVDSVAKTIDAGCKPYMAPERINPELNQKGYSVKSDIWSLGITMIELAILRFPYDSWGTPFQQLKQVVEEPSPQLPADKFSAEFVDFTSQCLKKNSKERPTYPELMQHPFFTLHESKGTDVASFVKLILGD
Sequence of JAK3 JH1 catalytic (human) (P52333 whole entry, looked up): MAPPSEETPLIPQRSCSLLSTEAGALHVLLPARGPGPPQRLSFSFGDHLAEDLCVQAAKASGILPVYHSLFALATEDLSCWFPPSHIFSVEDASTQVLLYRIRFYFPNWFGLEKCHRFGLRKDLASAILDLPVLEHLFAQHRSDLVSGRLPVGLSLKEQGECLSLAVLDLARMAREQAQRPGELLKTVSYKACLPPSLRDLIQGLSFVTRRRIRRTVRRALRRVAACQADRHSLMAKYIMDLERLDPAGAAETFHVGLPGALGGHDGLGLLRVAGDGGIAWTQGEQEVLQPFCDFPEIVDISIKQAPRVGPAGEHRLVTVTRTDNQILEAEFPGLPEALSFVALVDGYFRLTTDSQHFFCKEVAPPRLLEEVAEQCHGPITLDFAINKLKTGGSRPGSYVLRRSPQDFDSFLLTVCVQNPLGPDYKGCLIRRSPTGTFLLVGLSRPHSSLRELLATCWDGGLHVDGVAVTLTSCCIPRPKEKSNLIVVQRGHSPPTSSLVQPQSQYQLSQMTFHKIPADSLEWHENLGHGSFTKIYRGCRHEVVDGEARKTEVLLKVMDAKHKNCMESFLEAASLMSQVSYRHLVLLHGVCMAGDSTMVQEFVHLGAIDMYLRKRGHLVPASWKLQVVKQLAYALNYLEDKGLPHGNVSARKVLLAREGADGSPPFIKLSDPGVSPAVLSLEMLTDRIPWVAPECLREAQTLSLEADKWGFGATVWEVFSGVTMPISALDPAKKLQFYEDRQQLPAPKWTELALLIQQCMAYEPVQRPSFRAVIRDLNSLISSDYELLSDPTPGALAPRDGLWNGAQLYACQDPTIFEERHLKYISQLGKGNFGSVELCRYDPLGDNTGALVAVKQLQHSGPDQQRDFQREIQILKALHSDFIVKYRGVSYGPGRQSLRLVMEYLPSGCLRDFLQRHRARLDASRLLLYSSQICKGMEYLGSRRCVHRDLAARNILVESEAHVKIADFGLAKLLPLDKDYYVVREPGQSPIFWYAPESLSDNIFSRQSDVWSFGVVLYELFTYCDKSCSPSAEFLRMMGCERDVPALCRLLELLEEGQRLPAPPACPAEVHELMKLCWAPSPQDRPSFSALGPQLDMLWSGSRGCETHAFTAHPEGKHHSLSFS
Sequence of MAPK11 (human) (Q15759 whole entry, looked up): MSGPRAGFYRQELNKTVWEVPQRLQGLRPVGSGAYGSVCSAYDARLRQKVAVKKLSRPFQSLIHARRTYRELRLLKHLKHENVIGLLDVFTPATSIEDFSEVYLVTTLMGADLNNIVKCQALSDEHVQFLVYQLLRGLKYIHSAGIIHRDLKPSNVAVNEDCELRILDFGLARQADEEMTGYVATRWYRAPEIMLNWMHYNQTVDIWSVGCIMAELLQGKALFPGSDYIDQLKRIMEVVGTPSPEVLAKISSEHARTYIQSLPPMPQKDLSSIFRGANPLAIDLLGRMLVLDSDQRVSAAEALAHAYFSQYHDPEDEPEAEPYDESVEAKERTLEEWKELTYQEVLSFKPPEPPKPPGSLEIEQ
Sequence of CDK9 (human) (P50750 whole entry, looked up): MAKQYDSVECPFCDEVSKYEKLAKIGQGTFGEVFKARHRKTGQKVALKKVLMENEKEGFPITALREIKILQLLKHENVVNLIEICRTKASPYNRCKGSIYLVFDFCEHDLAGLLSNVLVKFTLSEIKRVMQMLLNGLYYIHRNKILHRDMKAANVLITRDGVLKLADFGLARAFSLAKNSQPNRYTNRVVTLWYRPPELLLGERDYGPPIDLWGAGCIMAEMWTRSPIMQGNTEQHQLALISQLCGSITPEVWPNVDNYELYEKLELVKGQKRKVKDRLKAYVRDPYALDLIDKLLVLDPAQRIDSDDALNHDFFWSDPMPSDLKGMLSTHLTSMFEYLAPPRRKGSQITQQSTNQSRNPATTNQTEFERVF
Sequence of CSNK2A2 (human) (P19784 whole entry, looked up): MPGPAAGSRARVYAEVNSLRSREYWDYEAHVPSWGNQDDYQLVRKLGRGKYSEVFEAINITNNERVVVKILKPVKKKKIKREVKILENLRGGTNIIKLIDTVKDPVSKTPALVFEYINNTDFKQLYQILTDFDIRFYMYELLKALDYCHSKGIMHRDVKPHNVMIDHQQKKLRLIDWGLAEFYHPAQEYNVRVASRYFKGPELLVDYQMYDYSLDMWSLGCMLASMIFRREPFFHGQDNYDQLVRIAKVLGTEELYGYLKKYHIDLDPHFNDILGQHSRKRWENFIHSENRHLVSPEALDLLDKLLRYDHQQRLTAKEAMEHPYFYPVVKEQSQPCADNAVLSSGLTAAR
Sequence of MAP2K1 (human) (Q02750 whole entry, looked up): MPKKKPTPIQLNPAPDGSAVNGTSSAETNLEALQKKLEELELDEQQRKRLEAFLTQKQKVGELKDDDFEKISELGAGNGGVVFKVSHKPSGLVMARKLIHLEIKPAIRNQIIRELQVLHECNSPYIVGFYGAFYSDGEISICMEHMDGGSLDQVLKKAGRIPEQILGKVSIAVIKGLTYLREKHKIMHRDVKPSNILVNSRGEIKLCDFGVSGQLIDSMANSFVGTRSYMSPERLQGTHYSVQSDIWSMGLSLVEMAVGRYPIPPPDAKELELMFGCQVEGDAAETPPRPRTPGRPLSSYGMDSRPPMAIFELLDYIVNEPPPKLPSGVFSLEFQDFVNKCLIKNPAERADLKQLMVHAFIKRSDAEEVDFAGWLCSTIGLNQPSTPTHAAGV
Sequence of STK25 (human) (O00506 whole entry, looked up): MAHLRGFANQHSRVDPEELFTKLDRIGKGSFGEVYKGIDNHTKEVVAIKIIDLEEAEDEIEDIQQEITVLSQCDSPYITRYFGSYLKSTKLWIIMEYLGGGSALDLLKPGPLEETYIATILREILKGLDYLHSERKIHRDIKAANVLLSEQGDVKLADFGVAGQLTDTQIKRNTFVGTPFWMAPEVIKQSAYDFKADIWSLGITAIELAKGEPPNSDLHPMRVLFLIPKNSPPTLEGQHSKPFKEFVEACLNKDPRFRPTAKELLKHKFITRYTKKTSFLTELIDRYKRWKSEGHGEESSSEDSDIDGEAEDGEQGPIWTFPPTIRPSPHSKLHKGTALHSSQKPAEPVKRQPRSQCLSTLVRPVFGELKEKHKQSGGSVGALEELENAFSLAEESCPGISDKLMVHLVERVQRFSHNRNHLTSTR
Sequence of CDK14 (human) (O94921 whole entry, looked up): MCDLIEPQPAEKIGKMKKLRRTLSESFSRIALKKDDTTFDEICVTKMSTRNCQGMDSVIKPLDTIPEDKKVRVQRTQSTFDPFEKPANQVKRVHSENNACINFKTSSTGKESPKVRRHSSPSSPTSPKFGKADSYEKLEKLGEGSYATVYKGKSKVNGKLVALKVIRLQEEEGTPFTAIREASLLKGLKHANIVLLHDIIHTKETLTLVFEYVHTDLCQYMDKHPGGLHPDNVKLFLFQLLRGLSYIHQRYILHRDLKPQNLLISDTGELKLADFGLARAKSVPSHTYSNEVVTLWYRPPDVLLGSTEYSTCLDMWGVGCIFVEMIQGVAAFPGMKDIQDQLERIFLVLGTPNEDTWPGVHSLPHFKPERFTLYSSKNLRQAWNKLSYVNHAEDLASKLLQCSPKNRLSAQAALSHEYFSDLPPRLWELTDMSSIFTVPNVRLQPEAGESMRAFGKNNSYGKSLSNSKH

Question: Which results are given for `COCCNCCCn1c(C(=O)CF)c(-c2ccc(C)cc2)c2c(N)ncnc21`?
Answer: kinase still bound, per cent of control [1]: 96%; kinase still bound, per cent of control [2]: 94%; kinase still bound, per cent of control (ABL2 (human)): 100%; kinase still bound, per cent of control (ACVR2A (human)): 100%; kinase still bound, per cent of control (ADCK4 (human)): 93%; kinase still bound, per cent of control (CAMK2B (human)): 97%; kinase still bound, per cent of control (CAMK4 (human)): 100%; kinase still bound, per cent of control (CDK14 (human)): 100%; kinase still bound, per cent of control (CDK7 (human)): 100%; kinase still bound, per cent of control (CDK9 (human)): 100%; kinase still bound, per cent of control (CLK4 (human)): 91%; kinase still bound, per cent of control (CSNK2A2 (human)): 99%; kinase still bound, per cent of control (DSTYK (human)): 100%; kinase still bound, per cent of control (EIF2AK2 (human)): 90%; kinase still bound, per cent of control (EPHA6 (human)): 82%; kinase still bound, per cent of control (FER (human)): 84%; kinase still bound, per cent of control [3]: 91%; kinase still bound, per cent of control [4]: 96%; kinase still bound, per cent of control (HCK (human)): 100%; kinase still bound, per cent of control (ICK (human)): 100%; kinase still bound, per cent of control (ITK (human)): 100%; kinase still bound, per cent of control [5]: 100%; kinase still bound, per cent of control [6]: 85%; kinase still bound, per cent of control [7]: 94%; kinase still bound, per cent of control (LTK (human)): 100%; kinase still bound, per cent of control (MAP2K1 (human)): 100%; kinase still bound, per cent of control (MAP2K2 (human)): 100%; kinase still bound, per cent of control (MAP2K5 (human)): 46%; kinase still bound, per cent of control (MAP2K6 (human)): 97%; kinase still bound, per cent of control (MAPK11 (human)): 90%; kinase still bound, per cent of control (MELK (human)): 95%; kinase still bound, per cent of control (PAK6 (human)): 93%; kinase still bound, per cent of control [8]: 100%; kinase still bound, per cent of control (PRPF4B (human)): 100%; kinase still bound, per cent of control (SRPK3 (human)): 78%; kinase still bound, per cent of control (STK25 (human)): 100%; kinase still bound, per cent of control (STK32C (human)): 100%; kinase still bound, per cent of control (STK33 (human)): 100%; kinase still bound, per cent of control (STK35 (human)): 99%; kinase still bound, per cent of control (STK36 (human)): 95%; kinase still bound, per cent of control (SYK (human)): 96%; kinase still bound, per cent of control (TRPM6 (human)): 81%; kinase still bound, per cent of control (YSK4 (human)): 100%
